Test results from ChEMBL document CHEMBL3397028, “Synthesis and antimicrobial activity of novel benzoxazine sulfonamide derivatives” (2015).
In brackets after ≈: the same amount, converted by molar mass.

Columns and labels:
Format in all cases: functional
Xanthomonas campestris = assay: Antimicrobial activity against Xanthomonas campestris after 18 hrs by broth micro dilution method
Pseudomonas aeruginosa = assay: Antimicrobial activity against Pseudomonas aeruginosa MTCC 1034 after 18 hrs by broth micro dilution method; details: MTCC 1034, 18 h
Candida albicans = assay: Antimicrobial activity against Candida albicans MTCC 183 after 48 to 72 hrs by broth micro dilution method
Priestia megaterium = assay: Antimicrobial activity against Bacillus megaterium MTCC 3382 after 18 hrs by broth micro dilution method; details: MTCC 3382, 18 h
Escherichia coli = assay: Antimicrobial activity against Escherichia coli MTCC 1089 after 18 hrs by broth micro dilution method; details: MTCC 1089, 18 h

Row | Compound | MIC (Xanthomonas campestris) [µg/mL] | MIC (Pseudomonas aeruginosa) [µg/mL] | MIC (Candida albicans) [µg/mL] | MIC (Priestia megaterium) [µg/mL] | MIC (Escherichia coli) [µg/mL]
1 | O=C1COc2ccc(S(=O)(=O)NCCCN3CCN(c4ccccc4)CC3)cc2N1 | 500 (≈ 1160 µM) | 500 (≈ 1160 µM) | 500 (≈ 1160 µM) | 250 (≈ 581 µM) | 500 (≈ 1160 µM)
2 | O=C1COc2ccc(S(=O)(=O)NCCCN3CCN(c4ccc(C(F)(F)F)cc4)CC3)cc2N1 | 125 (≈ 251 µM) | 125 (≈ 251 µM) | 125 (≈ 251 µM) | 62.5 (≈ 125 µM) | 500 (≈ 1000 µM)
3 | COc1ccccc1N1CCN(CCCNS(=O)(=O)c2ccc3c(c2)NC(=O)CO3)CC1 | 125 (≈ 271 µM) | 125 (≈ 271 µM) | 62.5 (≈ 136 µM) | 31.2 (≈ 67.9 µM) | 250 (≈ 543 µM)
4 | O=C1COc2ccc(S(=O)(=O)NCCCN3CCN(c4ccccc4F)CC3)cc2N1 | 62.5 (≈ 139 µM) | 62.5 (≈ 139 µM) | 125 (≈ 279 µM) | 31.2 (≈ 69.7 µM) | 125 (≈ 279 µM)
5 | O=C1COc2ccc(S(=O)(=O)NCCCN3CCN(c4ccc(F)cc4)CC3)cc2N1 | 125 (≈ 279 µM) | 62.5 (≈ 139 µM) | 250 (≈ 557 µM) | 250 (≈ 557 µM) | 500 (≈ 1110 µM)
6 | Cc1cc2c(cc1S(=O)(=O)NCCCN1CCN(c3ccc(C(F)(F)F)cc3)CC1)NC(=O)CO2 | 62.5 (≈ 122 µM) | 250 (≈ 488 µM) | 125 (≈ 244 µM) | 62.5 (≈ 122 µM) | 250 (≈ 488 µM)
7 | COc1ccccc1N1CCN(CCCNS(=O)(=O)c2cc3c(cc2C)OCC(=O)N3)CC1 | 500 (≈ 1050 µM) | 500 (≈ 1050 µM) | 250 (≈ 527 µM) | 250 (≈ 527 µM) | 500 (≈ 1050 µM)
8 | Cc1cc2c(cc1S(=O)(=O)NCCCN1CCN(c3ccccc3F)CC1)NC(=O)CO2 | 250 (≈ 540 µM) | 250 (≈ 540 µM) | 250 (≈ 540 µM) | 250 (≈ 540 µM) | 250 (≈ 540 µM)
9 | Cc1cc2c(cc1S(=O)(=O)NCCCN1CCN(c3ccccc3)CC1)NC(=O)CO2 | 250 (≈ 562 µM) | 250 (≈ 562 µM) | 250 (≈ 562 µM) | 250 (≈ 562 µM) | 250 (≈ 562 µM)
10 | Cc1cc2c(cc1S(=O)(=O)NCCCN1CCSCC1)NC(=O)CO2 | 250 (≈ 648 µM) | 500 (≈ 1300 µM) | 250 (≈ 648 µM) | 125 (≈ 324 µM) | 500 (≈ 1300 µM)
11 | Cc1cc2c(cc1S(=O)(=O)N1CCN(c3ccc(C(F)(F)F)cc3)CC1)N(CC(=O)c1ccc(-c3ccccc3)cc1)C(=O)CO2 | 125 (≈ 192 µM) | 125 (≈ 192 µM) | 125 (≈ 192 µM) | 125 (≈ 192 µM) | 250 (≈ 385 µM)
12 | Cc1cc2c(cc1S(=O)(=O)N1CCN(c3ccc(C(F)(F)F)cc3)CC1)N(CC(=O)c1ccccc1)C(=O)CO2 | 250 (≈ 436 µM) | 250 (≈ 436 µM) | 250 (≈ 436 µM) | 250 (≈ 436 µM) | 250 (≈ 436 µM)
13 | Cc1ccc(C(=O)CN2C(=O)COc3cc(C)c(S(=O)(=O)N4CCN(c5ccc(C(F)(F)F)cc5)CC4)cc32)cc1 | 125 (≈ 213 µM) | 31.2 (≈ 53.2 µM) | 250 (≈ 425 µM) | 125 (≈ 213 µM) | 62.5 (≈ 106 µM)
14 | Cc1cc2c(cc1S(=O)(=O)N1CCN(c3ccc(C(F)(F)F)cc3)CC1)N(CC(=O)c1ccc([N+](=O)[O-])cc1)C(=O)CO2 | 125 (≈ 202 µM) | 31.2 (≈ 50.5 µM) | 31.2 (≈ 50.5 µM) | 31.2 (≈ 50.5 µM) | 62.5 (≈ 101 µM)
15 | COc1ccc(C(=O)CN2C(=O)COc3cc(C)c(S(=O)(=O)N4CCN(c5ccc(C(F)(F)F)cc5)CC4)cc32)cc1 | 250 (≈ 414 µM) | 125 (≈ 207 µM) | 250 (≈ 414 µM) | 62.5 (≈ 104 µM) | 250 (≈ 414 µM)
16 | Cc1cc2c(cc1S(=O)(=O)N1CCN(c3ccc(C(F)(F)F)cc3)CC1)N(CC(=O)c1ccc(Cl)cc1)C(=O)CO2 | 500 (≈ 822 µM) | 500 (≈ 822 µM) | 500 (≈ 822 µM) | 250 (≈ 411 µM) | 500 (≈ 822 µM)
17 | Cc1cc2c(cc1S(=O)(=O)N1CCN(c3ccc(C(F)(F)F)cc3)CC1)N(CC(=O)c1cccs1)C(=O)CO2 | 125 (≈ 216 µM) | 31.2 (≈ 53.9 µM) | 31.2 (≈ 53.9 µM) | 31.2 (≈ 53.9 µM) | 125 (≈ 216 µM)
18 | COc1ccccc1N1CCN(S(=O)(=O)c2cc3c(cc2C)OCC(=O)N3CC(=O)c2ccc(-c3ccccc3)cc2)CC1 | 125 (≈ 204 µM) | 250 (≈ 409 µM) | 500 (≈ 817 µM) | 62.5 (≈ 102 µM) | 500 (≈ 817 µM)
19 | COc1ccccc1N1CCN(S(=O)(=O)c2cc3c(cc2C)OCC(=O)N3CC(=O)c2ccccc2)CC1 | 62.5 (≈ 117 µM) | 125 (≈ 233 µM) | 62.5 (≈ 117 µM) | 62.5 (≈ 117 µM) | 125 (≈ 233 µM)
20 | COc1ccccc1N1CCN(S(=O)(=O)c2cc3c(cc2C)OCC(=O)N3CC(=O)c2ccc(C)cc2)CC1 | 125 (≈ 227 µM) | 62.5 (≈ 114 µM) | 62.5 (≈ 114 µM) | 125 (≈ 227 µM) | 62.5 (≈ 114 µM)
21 | COc1ccccc1N1CCN(S(=O)(=O)c2cc3c(cc2C)OCC(=O)N3CC(=O)c2ccc([N+](=O)[O-])cc2)CC1 | 125 (≈ 215 µM) | 250 (≈ 431 µM) | 250 (≈ 431 µM) | 62.5 (≈ 108 µM) | 250 (≈ 431 µM)
22 | COc1ccc(C(=O)CN2C(=O)COc3cc(C)c(S(=O)(=O)N4CCN(c5ccccc5OC)CC4)cc32)cc1 | 62.5 (≈ 110 µM) | 31.2 (≈ 55.2 µM) | 31.2 (≈ 55.2 µM) | 31.2 (≈ 55.2 µM) | 62.5 (≈ 110 µM)
23 | COc1ccccc1N1CCN(S(=O)(=O)c2cc3c(cc2C)OCC(=O)N3CC(=O)c2ccc(Cl)cc2)CC1 | 125 (≈ 219 µM) | 250 (≈ 439 µM) | 250 (≈ 439 µM) | 250 (≈ 439 µM) | 250 (≈ 439 µM)
24 | COc1ccccc1N1CCN(S(=O)(=O)c2cc3c(cc2C)OCC(=O)N3CC(=O)c2cccs2)CC1 | 250 (≈ 462 µM) | 250 (≈ 462 µM) | 250 (≈ 462 µM) | 500 (≈ 923 µM) | 250 (≈ 462 µM)
25 | Cc1cc2c(cc1S(=O)(=O)N1CCN(c3ccc(C(F)(F)F)cc3)CC1)NC(=O)CO2 | 500 (≈ 1100 µM) | 250 (≈ 549 µM) | 500 (≈ 1100 µM) | 250 (≈ 549 µM) | 500 (≈ 1100 µM)
26 | COc1ccccc1N1CCN(S(=O)(=O)c2cc3c(cc2C)OCC(=O)N3)CC1 | 500 (≈ 1200 µM) | 500 (≈ 1200 µM) | 500 (≈ 1200 µM) | 250 (≈ 599 µM) | 500 (≈ 1200 µM)
27 | OC(Cn1cncn1)(Cn1cncn1)c1ccc(F)cc1F [FLUCONAZOLE] |  |  | 32 (≈ 104 µM) |  | 
28 | CO[C@H]1/C=C/O[C@@]2(C)Oc3c(C)c(O)c4c(O)c(c(/C=N/N5CCN(C)CC5)c(O)c4c3C2=O)NC(=O)/C(C)=C\C=C\[C@H](C)[C@H](O)[C@@H](C)[C@@H](O)[C@@H](C)[C@H](OC(C)=O)[C@@H]1C [RIFAMPIN] | 32 (≈ 38.9 µM) | 32 (≈ 38.9 µM) |  | 64 (≈ 77.8 µM) | 64 (≈ 77.8 µM)
